Patent publication US5714479A, “Endothelin antagonistic heteroaromatic ring-fused cyclopentene derivatives” (Banyu Pharmaceutical Co., Ltd., priority 1993, dated 1998)

Assays:
[1] = test system: isolated porcine coronary arteries; experiment: Activities against endothelin-induced contraction of isolated porcine coronary arteries; parameters: species or system pig
Method: Activities against endothelin-induced contraction of isolated porcine coronary arteries
The coronary artery of pig was extracted, and a spiral preparation having a width of 1 mm and a length of 10 mm was prepared therefrom. The preparation having the endothelial cells denuded, was hanged in a 5 ml organ bath filled with a Krebs.Heneseleit solution saturated with a gas mixture of 95% O2 and 5% CO2, and a change in the tension was isometrically measured and recorded.
(§1) Endothelin-1 was added into the organ bath in a cumulatively increasing manner, whereby the influence of a compound of the present invention to the concentration-response curve for endothelin-1 was examined. The compound was added into the organ bath 20 minutes prior to the addition of endothelin-1.

[2] = test system: isolated rabbit iliac arteries; experiment: Activities against endothelin-induced contraction of isolated rabbit iliac arteries
Method: Activities against endothelin-induced contraction of isolated rabbit iliac arteries
The iliac artery of rabbit was isolated, and a spiral preparation having a width of 1 mm and a length of 10 mm was prepared therefrom. The preparation having the endothelial cells denuded, was placed in a 5 ml organ bath filled with a Krebs.Henseleit solution saturated with a gas mixture of 95% O2 and 5% CO2, and a change in the tension was isometrically measured and recorded.
as §1

ETA receptor = experiment: Endothelin binding inhibition test to ETA receptor (porcine aorta smooth muscle membranes, 125I-endothelin-1); details: at 1.1 μM
Method: Endothelin binding inhibition test to ETA receptor
The smooth muscle tissue of porcine aorta was homogenized in a buffer solution of 10 mM MOPS, pH 7.4, at 4° C. by a polytron. To the homogenate, sucrose was added to a concentration of 20%, and the mixture was centrifuged at 1,000×g for 15 minutes, and the supernatant was further centrifuged at 10,000×g for 15 minutes. The supernatant thereof was further centrifuged at 90,000×g for 40 minutes. The membrane precipitate thereby obtained was suspended in a buffer solution of 5 mM HEPES/Tris, pH 7.4, at a concentration of 25 mg/ml.
(§2) Then, 16 μl of this membrane suspension was added to 340 μl of 50 mM tris/HCl buffer, pH 7.4, containing […] calcium chloride, 10 μM magnesium chloride, 0.1 mM PMSF, 1 μM pepstatin A, 2 μM leupeptin, 1 mM 1,10-phenanthroline and 0.1% bovine serum albumin. To this suspension, 4 μl of (A) endothelin-1 (for nonspecific binding; 0.2 μM as the final concentration), (B) buffer solution A (for total control binding), or (C) a test compound (1.1 μM as the final concentration), was added. Further, to each suspension, 40 μl of ^125 I-endothelin-1 (12000-18000 cpm) was added. […] Then, the radioactivity trapped by the glass filter was measured, and the ^125 I-endothelin-1 binding inhibition D (%) at 1.1 μM of the test compound was determined by the following equation. […]

ETB receptor = experiment: Endothelin binding inhibition test to ETB receptor (porcine cerebellum membranes, 125I-endothelin-1); details: at 1.1 μM
Method: Endothelin binding inhibition test to ETB receptor
The cerebellum of porcine was homogenized in a buffer solution of 10 mM MOPS, pH 7.4, at 4° C. by a polytron. To the homogenate, sucrose was added to a concentration of 20%, and the mixture was centrifuged at 1,000×g for 15 minutes, and the supernatant was further centrifuged at 10,000×g for 15 minutes. The supernatant thereof was further centrifuged at 90,000×g for 40 minutes. The membrane precipitate thereby obtained was suspended in a buffer solution of 5 mM HEPES/Tris, pH 7.4, at a concentration of 3.3 mg/ml.
as §2

human ETA receptor = experiment: Endothelin binding inhibition test to human ET receptor (ETA); details: 1.1 μM; human cell membranes (SK-N-MC or Girardi heart cells)
Method: (§3) Endothelin binding inhibition test to human ET receptor
(§4) The human neuroblastoma SK-N-MC cells or the human Girardi heart cells purchased from Dainippon Seiyaku (Japan) were cultured in minimal essential medium supplemented with fetal calf serum. The cells were collected and homogenized in 10 mM MOPS buffer (pH 7.4) containing 154 mM NaCl, 10 mM KCl, 0.8 mM CaCl2 and 20% sucrose at 4° C. using a polytron homogenizer. The homogenate was then centrifuged at 1,000×gfor 15 minutes. The supernatant was centrifuged at 100,000×g for 1 hour at 4° C. Then the pellet was washed with 5 mM Hepes/Tris buffer (pH 7.4). The resulting membranes were incubated with [^125 I]endothelin-1 in the presence of each test compound or vehicle (1% dimethyl sulfoxide) in 50 mM Tris/HCl buffer (pH 7.4) containing 0.1 mM phenylmethanesulfonyl fluoride, 1 μM pepstatin, 2 μM leupeptin, 1 mM 1,10-phenanthroline, 1 mM EDTA, 10 μM CaCl2, 10 μM MgCl2 and 0.1% BSA in a total volume of 0.4 ml. After 4 hours incubation, cold 5 mM Hepes/Tris buffer (pH 7.4) containing 0.3% BSA (Buffer A) was added to the mixture. Free and bound [^125 I]endothelin-1 were separated by filtration using Whatman GF/C glass fiber filters. After the filtration, the filters were washed with buffer A, and the radioactivity on the filters was measured in a γ counter. Nonspecific binding was determined in the presence of 200 nM endothelin-1. […]

human ETB receptor = experiment: Endothelin binding inhibition test to human ET receptor (ETB); details: 1.1 μM; human cell membranes (SK-N-MC or Girardi heart cells)
Method: as §3, §4

[3] = 0.1 to 10 μM, rabbit iliac artery

| SMILES | effect on the isolated artery when applied alone [1] | influence on the concentration-response curve for endothelin-1 ([1]; 10 μM, added 20 minutes prior to endothelin-1, porcine coronary artery) | effect on maximum response to endothelin-1 ([1]; 10 μM, porcine coronary artery) | effect on the isolated artery when applied alone [2] | effect on maximum response to endothelin-1 [2, 3] | influence on the concentration-response curve for endothelin-1 [2, 3] | 125I-endothelin-1 binding inhibition D (%) to ETA (ETA receptor) [%] | 125I-endothelin-1 binding inhibition D (%) to ETB (ETB receptor) [%] | Percent (%) inhibition of [125I]ET-1 specific binding to ETA (human ETA receptor) [%] | Percent (%) inhibition of [125I]ET-1 specific binding to ETB (human ETB receptor) [%] |
| --- | --- | --- | --- | --- | --- | --- | --- | --- | --- | --- |
| COc1ccc([C@H]2c3ncccc3[C@@H](c3ccc4c(c3)OCO4)[C@@H]2C(=O)O)cc1 (relative stereo) [Compound 2, (5RS,6SR,7SR)-6-Carboxy-5-(3,4-methylenedioxyphenyl)-7-(4-methoxyphenyl)cyclopenteno[1,2-b]pyridine] | showed no effects to the isolated coronary artery when applied alone | remarkably shifted the concentration-response curves of endothelin-1 to the right | did not affect the maximum response | showed no effects to the isolated iliac artery when applied alone | did not affect the maximum response | remarkably shifted the concentration-response curves of endothelin-1 to the right |  |  |  |  |
| COc1ccc([C@H]2c3ncccc3[C@@H](c3ccc4c(c3)OCO4)[C@@H]2C(=O)O)cc1 (relative stereo) [Compound 2-enantiomer A] |  |  |  |  |  |  | 99 | 80 | 99 | 80 |
